Data reported in PMC9149120 (Cell, 2022).
Peptide text beside a SMILES is read from it. * marks the point of attachment. Cbz = O=C(OCc1ccccc1)*; CH2F = FC*

How the values were obtained:
SH-SY5Y cells [1] = experiment: Staurosporine; assay type: cell-based; conditions: 0.5 μM STS, n = 3; Figure S4F
HT 22 cells = experiment: TNF-α and Z-VAD-induced necroptosis, Alamar blue; assay type: cell-based; conditions: 1 ng/mL TNF-α with 50 μM z-VAD, n = 3; Figure S4G
human cortical neurons = experiment: Human α-syn PFF-induced cell death, Hoechst/PI staining; assay type: cell-based; conditions: 0.5 or 1 μM, pre-incubated 1 h, human α-syn PFF 14 days, n = 4; Figure 3G
[2] = tested on: PC-3 prostate cancer cells; experiment: Tumor cell viability alone or with alantolactone; assay type: cell-based; conditions: 0.5–8 μM combined with 10 μM ATL, 72 h, n = 3; Figure S5D
cortical neurons = experiment: Nuclear translocation of AIF and PAAN/MIF after α-syn PFF; assay type: cell-based, mouse; conditions: n = 3
primary cortical neurons = experiment: α-syn PFF-induced PARP activation; assay type: cell-based, mouse; conditions: AP5 50 μM or NBQX 10 μM pre-incubated 1 h, α-syn PFF 3 days, n = 3; Figure S3A
PAAN/MIF nuclease = molecular target: T1, PAAN/MIF nuclease (Homo sapiens, UniProt P14174); experiment: In vitro PAAN/MIF nuclease assay; assay type: biochemical; conditions: for inhibition of PAAN/MIF nuclease activity: PS30 substrate, indicated doses, n = 4, Figure 4H; for inhibition of the nuclease activity of PAAN/MIF by MIF tautomerase inhibitors: 10 μM p-425, 50 μM ISO-1, 10 μM AV411, n = 5, Figure 4I
T1 sequence (P14174 1-115): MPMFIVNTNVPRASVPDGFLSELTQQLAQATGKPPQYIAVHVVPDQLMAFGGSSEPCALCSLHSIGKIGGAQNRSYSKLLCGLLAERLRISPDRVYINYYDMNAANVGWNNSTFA

SH-SY5Y cells [3] = experiment: MNNG-induced parthanatic cell death, Alamar blue viability; assay type: cell-based; conditions: for inhibition of MNNG-induced parthanatic cell death: 0.5 or 1 μM, 50 μM MNNG 15 min, n = 4, Figure S5I; for inhibition of parthanatic cell death by MIF tautomerase inhibitors: 10 μM p-425, 50 μM ISO-1, 10 μM AV411, 50 μM MNNG 15 min, n = 5, Figure 4J

For `C[C@]1(c2nc3c(C(N)=O)cccc3[nH]2)CCCN1` [ABT-888], the “inhibition of staurosporine (STS)-induced apoptotic cell death” value (SH-SY5Y cells [1]) was “did not inhibit”, the “prevention of TNF-α and Z-VAD-induced necroptosis” value (HT 22 cells) was “not prevented” and the “protection against cell death” value (human cortical neurons) was “protected against cell death”. The “tumor toxicity induced by alantolactone (ATL)” value [2] was “enhancement of tumor toxicity” and the “α-syn PFF-induced nuclear translocation of PAAN/MIF and AIF” value (cortical neurons; ABT-888 1 μM, Figure 2A) was “attenuated”.
In the case of `NC(CCCP(=O)(O)O)C(=O)O` (centres unmarked) [AP5], the “nuclear translocation of AIF and MIF” value (cortical neurons; AP5 50 μM or NBQX 10 μM pretreatment, Figure S3B) is reported as “attenuated” and the “α-syn PFF-induced PARP activation” value (primary cortical neurons) is reported as “inhibited”.
`C=CC[C@@H]1/C=C(\C)C[C@H](C)C[C@H](OC)[C@H]2O[C@@](O)(C(=O)C(=O)N3CCCC[C@H]3C(=O)O[C@H](/C(C)=C/[C@@H]3CC[C@@H](O)[C@H](OC)C3)[C@H](C)[C@@H](O)CC1=O)[C@H](C)C[C@@H]2OC` [FK506] was tested, and the “inhibition of PAAN/MIF nuclease activity” value (PAAN/MIF nuclease) was “failed to inhibit” and the “inhibition of MNNG-induced parthanatic cell death” value (SH-SY5Y cells [3]) was “failed to inhibit”.
In the case of `COC(=O)CC1CC(c2ccc(O)cc2)=NO1` (centres unmarked) [ISO-1], the “inhibition of the nuclease activity of PAAN/MIF by MIF tautomerase inhibitors” value (PAAN/MIF nuclease) is reported as “failed to inhibit” and the “inhibition of parthanatic cell death by MIF tautomerase inhibitors” value (SH-SY5Y cells [3]) is reported as “failed to inhibit”.
For `CC(C)C(=O)c1c(C(C)C)nn2ccccc12` [Ibudilast], the “inhibition of the nuclease activity of PAAN/MIF by MIF tautomerase inhibitors” value (PAAN/MIF nuclease) was “failed to inhibit” and the “inhibition of parthanatic cell death by MIF tautomerase inhibitors” value (SH-SY5Y cells [3]) was “failed to inhibit”.
For `CN1C(=O)C(Cc2c[nH]c3ccccc23)NC1=S` (centres unmarked) [Nec-1], the “prevention of TNF-α and Z-VAD-induced necroptosis” value (HT 22 cells) was “prevented necroptosis”.
For `COC(=O)C[C@H](NC(=O)[C@H](C)NC(=O)[C@@H](NC(=O)OCc1ccccc1)C(C)C)C(=O)CF` [Z-VAD] (Cbz-Val-Ala-Asp(OMe)-CH2F), the “inhibition of staurosporine (STS)-induced apoptotic cell death” value (SH-SY5Y cells [1]) was “prevented”.
With `CO[C@H]1C[C@@H]2CC[C@@H](C)[C@@](O)(O2)C(=O)C(=O)N2CCCC[C@H]2C(=O)O[C@H]([C@H](C)C[C@@H]2CC[C@@H](O)[C@H](OC)C2)CC(=O)[C@H](C)/C=C(\C)[C@@H](O)[C@@H](OC)C(=O)[C@H](C)C[C@H](C)/C=C/C=C/C=C/1C` [rapamycin] the “inhibition of PAAN/MIF nuclease activity” value (PAAN/MIF nuclease) was “failed to inhibit” and the “inhibition of MNNG-induced parthanatic cell death” value (SH-SY5Y cells [3]) was “failed to inhibit”.
